In ChEMBL document CHEMBL5046215, “Heparan Sulfate Mimetics Differentially Affect Homologous Chemokines and Attenuate Cancer Development” (J Med Chem, 2021):
The source made the active and inactive calls. The rule behind the calls is not given here.

Experiments:
C-C motif chemokine 2 [1] = molecular target: T1, C-C motif chemokine 2 (Homo sapiens, UniProt P13500); assay: Binding affinity to human CCL2 at 100 uM by glycan microarray analysis
Target sequence in this assay (P13500 24-99 limits assumed): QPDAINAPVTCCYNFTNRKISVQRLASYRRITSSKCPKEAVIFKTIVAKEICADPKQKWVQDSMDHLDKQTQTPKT

[2] = molecular target: Interleukin-8 (Homo sapiens) (UniProt P10145); assay: Binding affinity to human CXCL8 at 100 uM by glycan microarray analysis
[3] = molecular target: C-X-C motif chemokine 10 (Homo sapiens) (UniProt P02778); assay: Binding affinity to human CXCL10 at 100 uM by glycan microarray analysis
Homo sapiens [4] = species: Homo sapiens; assay: Binding affinity to human CCL13 at 100 uM by glycan microarray analysis
[5] = molecular target: T2, Stromal cell-derived factor 1 (Homo sapiens, UniProt P48061); assay: Binding affinity to human CXCL12 at 100 uM by glycan microarray analysis
[6] = molecular target: T3, C-C motif chemokine 5 (Homo sapiens) (UniProt P13501); assay: Binding affinity to human CCL5 at 100 uM by glycan microarray analysis
T3 sequence (whole entry): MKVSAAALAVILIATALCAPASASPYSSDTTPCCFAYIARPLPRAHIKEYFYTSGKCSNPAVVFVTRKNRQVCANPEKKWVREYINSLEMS

Homo sapiens [7] = species: Homo sapiens; assay: Binding affinity to human CCL21 at 100 uM by glycan microarray analysis
Homo sapiens [8] = species: Homo sapiens; assay: Binding affinity to human CCL28 at 100 uM by glycan microarray analysis
[9] = molecular target: C-C motif chemokine 7 (Homo sapiens) (UniProt P80098); assay: Binding affinity to human CCL7 at 100 uM by glycan microarray analysis
C-C motif chemokine 5 = molecular target: T4, C-C motif chemokine 5 (Homo sapiens, UniProt P13501); assay: Binding affinity to human CCL5 assessed as dissociation constant incubated for 3 mins by surface plasmon resonance analysis
T4 sequence (P13501 whole entry): T3 sequence (whole entry)

MCF7 [10] = assay: Induction of cell cycle arrest in human MCF7 cells assessed as accumulation of cells at G2/M phase incubated for 72 hrs in presence of CCL2 by PI staining based flow cytometric analysis; assay type: functional
Interleukin-8 = molecular target: T5, Interleukin-8 (Homo sapiens, UniProt P10145); assay: Binding affinity to human CXCL8 assessed as dissociation constant incubated for 3 mins by surface plasmon resonance analysis
T5 sequence (P10145 whole entry): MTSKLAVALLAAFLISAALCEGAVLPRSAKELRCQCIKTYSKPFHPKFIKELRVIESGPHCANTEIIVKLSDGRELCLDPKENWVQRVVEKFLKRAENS

C-C motif chemokine 2 [11] = molecular target: T1, C-C motif chemokine 2; assay: Binding affinity to human CCL2 assessed as on-rate constant incubated for 3 mins by surface plasmon resonance analysis
Target sequence in this assay (P13500 24-99 limits assumed): as the sequence (P13500 24-99 limits assumed) above

[12] = molecular target: T3, C-C motif chemokine 5 (Homo sapiens); assay: Binding affinity to human CCL5 assessed as on-rate constant incubated for 3 mins by surface plasmon resonance analysis
[13] = molecular target: Interleukin-8 (Homo sapiens) (UniProt P10145); assay: Binding affinity to human CXCL8 assessed as on-rate constant incubated for 3 mins by surface plasmon resonance analysis
[14] = molecular target: T3, C-C motif chemokine 5 (Homo sapiens); assay: Binding affinity to human CCL5 assessed as off-rate constant incubated for 3 mins by surface plasmon resonance analysis
MCF7 [15] = assay: Antiinvasive activity against human MCF7 cells assessed as inhibition of cell invasion at 50 ug/ml measured after 24 hrs in presence of CCL2 by crystal violet staining based Boyden chamber analysis; assay type: functional; details: dose 50.0 µg/ml
C-C motif chemokine 2 [16] = molecular target: T1, C-C motif chemokine 2; assay: Binding affinity to human CCL2 assessed as off-rate constant incubated for 3 mins by surface plasmon resonance analysis
Target sequence in this assay (P13500 24-99 limits assumed): as the sequence (P13500 24-99 limits assumed) above

MDA-MB-231 = assay: Anti-proliferative activity against human MDA-MB-231 cells assessed as reduction in cell proliferation at 10 to 50 ug/ml compound pretreated with CCL2 followed by incubation with cells and measured after 48 hrs by Sulforhodamine B staining based WST assay; assay type: functional; details: dose 10-50 µg/ml, at 10 to 50 µg/mL
C-X-C motif chemokine 10 = molecular target: T6, C-X-C motif chemokine 10 (Homo sapiens, UniProt P02778); assay: Binding affinity to human CXCL10 assessed as dissociation constant incubated for 3 mins by surface plasmon resonance analysis
T6 sequence (P02778 whole entry): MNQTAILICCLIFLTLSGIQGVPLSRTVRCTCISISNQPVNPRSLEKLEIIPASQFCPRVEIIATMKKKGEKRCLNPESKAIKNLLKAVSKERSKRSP

C-C motif chemokine 2 [17] = molecular target: T1, C-C motif chemokine 2; assay: Binding affinity to human CCL2 assessed as dissociation constant incubated for 3 mins by surface plasmon resonance analysis
Target sequence in this assay (P13500 whole entry): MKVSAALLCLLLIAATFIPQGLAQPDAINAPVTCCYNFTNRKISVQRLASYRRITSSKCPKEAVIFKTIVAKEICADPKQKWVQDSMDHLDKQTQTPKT

MCF7 [18] = assay: Anti-proliferative activity against human MCF7 cells assessed as reduction in cell proliferation at 10 to 50 ug/ml compound pretreated with CCL2 followed by incubation with cells and measured after 48 hrs by Sulforhodamine B staining based WST assay; assay type: functional; details: dose 10-50 µg/ml, at 10 to 50 µg/mL
MCF7 [19] = assay: Antimigratory activity against human MCF7 cells assessed as reduction in cell migration at 10 to 50 ug/ml measured after 5 hrs in presence of CCL2 by wound healing assay relative to control; assay type: functional; details: dose 10-50 µg/ml
[20] = molecular target: T2, Stromal cell-derived factor 1; assay: Binding affinity to human CXCL12 assessed as dissociation constant incubated for 3 mins by surface plasmon resonance analysis
[21] = molecular target: Interleukin-8 (Homo sapiens) (UniProt P10145); assay: Binding affinity to human CXCL8 assessed as off-rate constant incubated for 3 mins by surface plasmon resonance analysis
MCF7 [22] = assay: Decrease in MAPK expression in human MCF7 cells at 50 ug/ml measured after 30 mins in presence of CCL2 by Western blot analysis; assay type: functional, cell-based; details: dose 50.0 µg/ml

T2 sequence (P48061 whole entry): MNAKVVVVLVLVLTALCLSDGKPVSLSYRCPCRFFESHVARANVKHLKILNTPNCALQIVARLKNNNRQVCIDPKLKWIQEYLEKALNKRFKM
Sequence of C-C motif chemokine 7 (Homo sapiens) (P80098 whole entry): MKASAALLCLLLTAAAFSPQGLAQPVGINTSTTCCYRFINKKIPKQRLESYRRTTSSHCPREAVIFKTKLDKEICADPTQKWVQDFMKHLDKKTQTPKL

SMILES	Activity (C-C motif chemokine 2 [1]) [%]	Activity [2] [%]	Activity [3] [%]	Activity (Homo sapiens [4]) [%]	Activity [5] [%]	Activity [6] [%]	Activity (Homo sapiens [7]) [%]	Activity (Homo sapiens [8]) [%]	Activity [9] [%]	also measured
NCCOCCO[C@@H]1O[C@@H](C(=O)O)[C@@H](OS(=O)(=O)O)[C@H](O)[C@H]1O	23	62	57	81	64	15	62	80	58	–
NCCOCCO[C@@H]1O[C@@H](C(=O)O)[C@@H](O[C@@H]2O[C@@H](C(=O)O)[C@@H](O[C@@H]3O[C@@H](C(=O)O)[C@@H](O[C@@H]4O[C@@H](C(=O)O)[C@@H](O)[C@H](O)[C@H]4O)[C@H](O)[C@H]3O)[C@H](O)[C@H]2O)[C@H](O)[C@H]1O	2	12	44	67	56	2	48	56	33	–
NCCOCCO[C@@H]1O[C@@H](C(=O)O)[C@@H](O[C@@H]2O[C@@H](C(=O)O)[C@@H](OS(=O)(=O)O)[C@H](O)[C@H]2OS(=O)(=O)O)[C@H](O)[C@H]1OS(=O)(=O)O	69	83	96	88	98	86	86	76	87	–
NCCOCCO[C@@H]1O[C@@H](C(=O)O)[C@@H](O[C@@H]2O[C@@H](C(=O)O)[C@@H](O[C@@H]3O[C@@H](C(=O)O)[C@@H](O[C@@H]4O[C@@H](C(=O)O)[C@@H](OS(=O)(=O)O)[C@H](O)[C@H]4OS(=O)(=O)O)[C@H](O)[C@H]3OS(=O)(=O)O)[C@H](O)[C@H]2OS(=O)(=O)O)[C@H](O)[C@H]1OS(=O)(=O)O	88	96	87	70	91	91	50	72	80	Kd (C-C motif chemokine 5): 5.72 µM; Activity (MCF7 [10]): 19%; Kd (Interleukin-8): 9.34 µM; K (C-C motif chemokine 2 [11]): 1.26 10^5/M/s; K [12]: 4.2 10^4/M/s; K [13]: 3.16 10^5/M/s; K [14]: 2.4 10^-1/s; Activity (MCF7 [15]): Active; K (C-C motif chemokine 2 [16]): 2.1 10^-1/s; inhibition (INH) (MDA-MB-231): 40%; Kd (C-X-C motif chemokine 10): 19.5 µM; Kd (C-C motif chemokine 2 [17]): 1.67 µM; inhibition (INH) (MCF7 [18]): 40%; inhibition (INH) (MCF7 [19]; at 10 to 50 µg/mL): 34%; Kd [20]: 18.8 µM; K [21]: 2.96 10^-1/s; inhibition (MCF7 [22]): Active
NCCOCCO[C@@H]1O[C@@H](C(=O)O)[C@@H](O[C@@H]2O[C@@H](C(=O)O)[C@@H](O[C@@H]3O[C@@H](C(=O)O)[C@@H](OS(=O)(=O)O)[C@H](O)[C@H]3O)[C@H](O)[C@H]2O)[C@H](O)[C@H]1O	36	63	78	86	92	30	83	80	75	–
NCCOCCO[C@@H]1O[C@@H](C(=O)O)[C@@H](O[C@@H]2O[C@@H](C(=O)O)[C@@H](OS(=O)(=O)O)[C@H](O)[C@H]2O)[C@H](O)[C@H]1O	25	73	67	94	79	38	71	84	55	–
NCCOCCO[C@@H]1O[C@@H](C(=O)O)[C@@H](OS(=O)(=O)O)[C@H](O)[C@H]1OS(=O)(=O)O	66	71	82	53	75	75	79	51	94	–
NCCOCCO[C@@H]1O[C@@H](C(=O)O)[C@@H](O[C@@H]2O[C@@H](C(=O)O)[C@@H](O)[C@H](O)[C@H]2O)[C@H](O)[C@H]1O	2	12	45	82	66	2	63	58	30	–
NCCOCCO[C@@H]1O[C@@H](C(=O)O)[C@@H](O[C@@H]2O[C@@H](C(=O)O)[C@@H](O[C@@H]3O[C@@H](C(=O)O)[C@@H](O)[C@H](O)[C@H]3O)[C@H](O)[C@H]2O)[C@H](O)[C@H]1O	0	5	24	69	38	1	46	72	17	–
NCCOCCO[C@@H]1O[C@@H](C(=O)O)[C@@H](O)[C@H](O)[C@H]1O	4	17	47	74	62	2	52	46	30	–
NCCOCCO[C@@H]1O[C@@H](C(=O)O)[C@@H](O[C@@H]2O[C@@H](C(=O)O)[C@@H](O[C@@H]3O[C@@H](C(=O)O)[C@@H](O[C@@H]4O[C@@H](C(=O)O)[C@@H](OS(=O)(=O)O)[C@H](O)[C@H]4O)[C@H](O)[C@H]3O)[C@H](O)[C@H]2O)[C@H](O)[C@H]1O	0	13	23	72	45	10	60	54	12	Activity (MCF7 [19]): inactive
NCCOCCO[C@@H]1O[C@@H](C(=O)O)[C@@H](O[C@@H]2O[C@@H](C(=O)O)[C@@H](O[C@@H]3O[C@@H](C(=O)O)[C@@H](OS(=O)(=O)O)[C@H](O)[C@H]3OS(=O)(=O)O)[C@H](O)[C@H]2OS(=O)(=O)O)[C@H](O)[C@H]1OS(=O)(=O)O	67	95	74	67	82	80	80	84	79	–
